Reference: patent US20220378747A1, “TOPICAL COMPOSITION FOR TREATING SKIN WOUNDS” (priority 2021, published 2022)

Tests used:
Type in all cases: physicochemical
[1] = 0.1M Zinc Gluconate and 0.1M Amino Acid Solutions: pH and precipitation on adjusting pH to 7.0; details: for pH: 0.1M zinc gluconate and 0.1M amino acid solution, before adjustment; for Observations: 0.1M zinc gluconate and 0.1M amino acid, pH adjusted to 7.0 with NaOH
Description: There are seven standard amino acids with uncharged polar R groups which can hydrogen-bond with water. […] The basic amino acids, in which the R groups have a net positive charge at pH 7.0, all have six carbon atoms. […] Histidine is the only amino acid having buffering capacity near pH 7.0 with a pK′ of the R group near 7.0. All of the basic amino acids as shown in the following table are suitable for use in the present invention: […]

[2] = pH of 2M amino acid and 1M zinc gluconate solution in water (Example 11); details: 2M amino acid and 1M zinc gluconate dissolved in water, before neutralization
Method: A formulation in powder form containing zinc and lysine which when dissolved in water forms a neutral solution was prepared as follows: Two M lysine and 1M zinc gluconate was dissolved in water to form a solution having a pH 7.4 and was neutralized to pH 7 with HCl. After the zinc and amino solution was neutralized, it was frozen immediately in liquid nitrogen. The frozen solution was then lyophilized for 24 hours to remove water.

pH of Zinc Solutions = assay: pH of Zinc Solutions
Description: Other minerals which may be administered in the subject form include calcium, iron, magnesium, manganese and the like.

| Compound | acidity of zinc gluconate neutralized by adding the amino acid and adjusting the pH to 7.0 [1] | pH [1] | Observations [1] | also measured |
| --- | --- | --- | --- | --- |
| CC[C@H](C)[C@H](N)C(=O)O [Isoleucine] | can be neutralized | 5.1 | – | – |
| CC(C)C[C@H](N)C(=O)O [Leucine] | – | 5.0 | pH adjusted to 7.0 with NaOH precipitates | – |
| NC(=O)C[C@H](N)C(=O)O [Asparagine] | can be neutralized | 4.8 | – | – |
| CC(C)[C@H](N)C(=O)O [Valine] | can be neutralized | 5.1 | – | – |
| N[C@@H](Cc1ccccc1)C(=O)O [Phenylalanine] | – | 4.9 | precipitates | – |
| N[C@@H](Cc1c[nH]c2ccccc12)C(=O)O [Tryptophan] | – | – | Not soluble | – |
| N[C@@H](Cc1c[nH]cn1)C(=O)O [Histidine] | can be neutralized | – | – | pH of solution [2]: 5.5 |
| Zinc gluconate | – | – | – | neutralization with sodium hydroxide ([1]; zinc salt alone, without amino acid): cannot be neutralized with sodium hydroxide without precipitating the mixture; pH (pH of Zinc Solutions; 0.1M solution): 5.85; pH (pH of Zinc Solutions; 0.2M solution): 5.65 |
| NCCCC[C@H](N)C(=O)O [Lysine] | can be neutralized | 7.4 | – | pH of solution [2]: 7.4 |
| C[C@H](N)C(=O)O [Alanine] | can be neutralized | 5.1 | – | – |
| NC(=O)CC[C@H](N)C(=O)O [Glutamine] | can be neutralized | 5.0 | – | – |
| N[C@@H](CS)C(=O)O [Cysteine] | cannot be made | – | precipitates | – |
| [Cl-].[Cl-].[Zn+2] [Zinc chloride] | – | – | – | pH (pH of Zinc Solutions; 0.1M solution): 6.4; pH (pH of Zinc Solutions; 0.2M solution): 6.2 |
| N[C@@H](CO)C(=O)O [Serine] | can be neutralized | – | does not precipitate | – |
| C[C@@H](O)[C@H](N)C(=O)O [Threonine] | can be neutralized | – | does not precipitate | – |
| CSCC[C@H](N)C(=O)O [Methionine] | – | – | pH adjusted to 7.0 with NaOH precipitates | – |
| CC(=O)[O-].CC(=O)[O-].[Zn+2] [Zinc acetate] | – | – | – | pH (pH of Zinc Solutions; 0.1M solution): 6.7; pH (pH of Zinc Solutions; 0.2M solution): 6.6 |
| O=S(=O)([O-])[O-].[Zn+2] [Zinc sulfate] | – | – | – | pH (pH of Zinc Solutions; 0.1M solution): 5.7; pH (pH of Zinc Solutions; 0.2M solution): 5.45 |
